Legend:
Format in all cases: in vivo
[1] = system: bermudagrass (Cynodon dactylon); experiment: Test B pre-/postemergence plant response
How it was run: (§1)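 Greenhouse herbicide screen. Pre- and postemergence (1- to 4-leaf) spray of compound in solvent/surfactant mixture; loam–sand soil for pre, peat/vermiculite medium for post. Visual control rating 0–100 at 13 to 15 days after treatment.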

[2] = system: blackgrass (Alopecurus myosuroides); experiment: Test B pre-/postemergence plant response
How it was run: as §1

[3] = system: cocklebur (Xanthium strumarium); experiment: Test B pre-/postemergence plant response
How it was run: as §1

[4] = system: downy bromegrass (Bromus tectorum); experiment: Test B pre-/postemergence plant response
How it was run: as §1

[5] = system: giant foxtail (Setaria faberii); experiment: Test B pre-/postemergence plant response
How it was run: as §1

[6] = system: green foxtail (Setaria viridis); experiment: Test B pre-/postemergence plant response
How it was run: as §1

[7] = system: johnsongrass (Sorghum halepense); experiment: Test B pre-/postemergence plant response
How it was run: as §1

kochia (Kochia scoparia) = experiment: Test B pre-/postemergence plant response
How it was run: as §1

[8] = system: morningglory (Ipomoea coccinea); experiment: Test B pre-/postemergence plant response
How it was run: as §1

[9] = system: ragweed (common ragweed, Ambrosia elatior); experiment: Test B pre-/postemergence plant response
How it was run: as §1

soybean (Glycine max) = experiment: Test B pre-/postemergence plant response
How it was run: as §1

[10] = system: velvetleaf (Abutilon theophrasti); experiment: Test B pre-/postemergence plant response
How it was run: as §1

[11] = system: wheat (Triticum aestivum); experiment: Test B pre-/postemergence plant response
How it was run: as §1

wild oat (Avena fatua) = experiment: Test B pre-/postemergence plant response
How it was run: as §1

[12] = system: yellow nutsedge (Cyperus esculentus); experiment: Test B pre-/postemergence plant response
How it was run: as §1

[13] = system: canarygrass (Phalaris minor); experiment: Test B postemergence plant response
How it was run: (§2)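 Plants grown in peat/vermiculite medium were sprayed postemergence at 2–18 cm height (1- to 4-leaf stage). After 13–15 days in the greenhouse, response was rated visually against untreated controls on a 0–100 scale (0 no effect, 100 complete control).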

[14] = system: chickweed (Stellaria media); experiment: Test B postemergence plant response
How it was run: as §2

[15] = system: windgrass (Apera spica-venti); experiment: Test B postemergence plant response
How it was run: as §2

[16] = 31 g ai/ha, postemergence, scale 0 to 100, 0 is no effect, 100 is complete control
[17] = 62 g ai/ha, postemergence, 0 is no effect, 100 is complete control, 13 to 15 days
[18] = Postemergence, 125 g ai/ha, visual rating after 13 to 15 days, scale 0 (no effect) to 100 (complete control)
[19] = Postemergence, 250 g ai/ha, scale 0 to 100 (0 no effect, 100 complete control)
[20] = Preemergence, 31 g ai/ha, scale 0 to 100 (0 no effect, 100 complete control)
[21] = Preemergence, 62 g ai/ha, scale 0 to 100, 0 no effect, 100 complete control
[22] = Preemergence, 125 g ai/ha, scale 0 to 100, 0 no effect, 100 complete control
[23] = Preemergence, 250 g ai/ha, 0 to 100 scale

SMILES: CCCCn1c(CCC)ncc(C(=O)C2=C(O)CCCC2=O)c1=O [Compound 75]
- Plant response rating, Bermudagrass [1, 16]: 90
- Bermudagrass plant response rating (0 to 100 scale) [1, 17]: 98
- Plant response rating, Bermudagrass [1, 18]: 98
- Plant response rating, Bermudagrass [1, 19]: 98
- Plant response rating, Bermudagrass [1, 20]: 98
- Plant response rating, Bermudagrass [1, 21]: 100
- Plant response rating, Bermudagrass [1, 22]: 100
- Bermudagrass plant response rating ([1]; Preemergence, 250 g ai/ha, 0 to 100 scale, 0 no effect, 100 complete control): 100
- Plant response rating, Blackgrass [2, 16]: 0
- Blackgrass plant response rating (0 to 100 scale) [2, 17]: 0
- Plant response rating, Blackgrass [2, 18]: 0
- Plant response rating, Blackgrass [2, 19]: 20
- Plant response rating, Blackgrass [2, 20]: 0
- Plant response rating, Blackgrass [2, 21]: 0
- Plant response rating, Blackgrass [2, 22]: 5
- Blackgrass plant response rating [2, 23]: 10
- Plant response rating, Cocklebur [3, 16]: 40
- Cocklebur plant response rating (0 to 100 scale) [3, 17]: 80
- Plant response rating, Cocklebur [3, 18]: 95
- Plant response rating, Cocklebur [3, 19]: 95
- Plant response rating, Cocklebur [3, 20]: 10
- Plant response rating, Cocklebur [3, 21]: 20
- Plant response rating, Cocklebur [3, 22]: 75
- Cocklebur plant response rating [3, 23]: 90
- Plant response rating, Bromegrass, Downy [4, 16]: 5
- Bromegrass, Downy plant response rating (0 to 100 scale) [4, 17]: 20
- Plant response rating, Bromegrass, Downy [4, 18]: 35
- Plant response rating, Bromegrass, Downy [4, 19]: 50
- Plant response rating, Bromegrass, Downy [4, 20]: 0
- Plant response rating, Bromegrass, Downy [4, 21]: 0
- Plant response rating, Bromegrass, Downy [4, 22]: 0
- Bromegrass, Downy plant response rating [4, 23]: 0
- Plant response rating, Foxtail, Giant [5, 16]: 75
- Foxtail, Giant plant response rating (0 to 100 scale) [5, 17]: 80
- Plant response rating, Foxtail, Giant [5, 18]: 85
- Plant response rating, Foxtail, Giant [5, 19]: 95
- Plant response rating, Foxtail, Giant [5, 20]: 0
- Plant response rating, Foxtail, Giant [5, 21]: 25
- Plant response rating, Foxtail, Giant [5, 22]: 80
- Foxtail, Giant plant response rating [5, 23]: 80
- Plant response rating, Foxtail, Green [6, 16]: 65
- Foxtail, Green plant response rating (0 to 100 scale) [6, 17]: 85
- Plant response rating, Foxtail, Green [6, 18]: 90
- Plant response rating, Foxtail, Green [6, 19]: 90
- Plant response rating, Foxtail, Green [6, 20]: 5
- Plant response rating, Foxtail, Green [6, 21]: 50
- Plant response rating, Foxtail, Green [6, 22]: 50
- Foxtail, Green plant response rating [6, 23]: 98
- Plant response rating, Johnsongrass [7, 16]: 0
- Johnsongrass plant response rating (0 to 100 scale) [7, 17]: 10
- Plant response rating, Johnsongrass [7, 18]: 20
- Plant response rating, Johnsongrass [7, 19]: 75
- Plant response rating, Johnsongrass [7, 20]: 0
- Plant response rating, Johnsongrass [7, 21]: 10
- Plant response rating, Johnsongrass [7, 22]: 65
- Johnsongrass plant response rating [7, 23]: 70
- Plant response rating, Kochia (kochia (Kochia scoparia); [16]): 75
- Kochia plant response rating (0 to 100 scale) (kochia (Kochia scoparia); [17]): 95
- Plant response rating, Kochia (kochia (Kochia scoparia); [18]): 100
- Plant response rating, Kochia (kochia (Kochia scoparia); [19]): 100
- Plant response rating, Kochia (kochia (Kochia scoparia); [20]): 80
- Plant response rating, Kochia (kochia (Kochia scoparia); [21]): 90
- Plant response rating, Kochia (kochia (Kochia scoparia); [22]): 90
- Kochia plant response rating (kochia (Kochia scoparia); [23]): 95
- Plant response rating, Morningglory [8, 16]: 20
- Morningglory plant response rating (0 to 100 scale) [8, 17]: 90
- Plant response rating, Morningglory [8, 18]: 95
- Plant response rating, Morningglory [8, 19]: 95
- Plant response rating, Morningglory [8, 20]: 0
- Plant response rating, Morningglory [8, 21]: 60
- Plant response rating, Morningglory [8, 22]: 75
- Morningglory plant response rating [8, 23]: 90
- Plant response rating, Ragweed [9, 16]: 80
- Ragweed plant response rating (0 to 100 scale) [9, 17]: 85
- Plant response rating, Ragweed [9, 18]: 90
- Plant response rating, Ragweed [9, 19]: 95
- Plant response rating, Ragweed [9, 20]: 75
- Plant response rating, Ragweed [9, 21]: 75
- Plant response rating, Ragweed [9, 22]: 95
- Ragweed plant response rating [9, 23]: 95
- Plant response rating, Soybean (soybean (Glycine max); [16]): 80
- Soybean plant response rating (0 to 100 scale) (soybean (Glycine max); [17]): 95
- Plant response rating, Soybean (soybean (Glycine max); [18]): 98
- Plant response rating, Soybean (soybean (Glycine max); [19]): 98
- Plant response rating, Velvetleaf [10, 16]: 100
- Velvetleaf plant response rating (0 to 100 scale) [10, 17]: 100
- Plant response rating, Velvetleaf [10, 18]: 100
- Plant response rating, Velvetleaf [10, 19]: 100
- Plant response rating, Velvetleaf [10, 20]: 100
- Plant response rating, Velvetleaf [10, 21]: 100
- Plant response rating, Velvetleaf [10, 22]: 100
- Velvetleaf plant response rating [10, 23]: 100
- Plant response rating, Wheat [11, 16]: 0
- Wheat plant response rating (0 to 100 scale) [11, 17]: 0
- Plant response rating, Wheat [11, 18]: 10
- Plant response rating, Wheat [11, 19]: 25
- Plant response rating, Wheat [11, 20]: 0
- Plant response rating, Wheat [11, 21]: 0
- Plant response rating, Wheat [11, 22]: 0
- Wheat plant response rating [11, 23]: 0
- Plant response rating, Oat, Wild (wild oat (Avena fatua); [16]): 0
- Oat, Wild plant response rating (0 to 100 scale) (wild oat (Avena fatua); [17]): 20
- Plant response rating, Oat, Wild (wild oat (Avena fatua); [18]): 50
- Plant response rating, Oat, Wild (wild oat (Avena fatua); [19]): 60
- Plant response rating, Oat, Wild (wild oat (Avena fatua); [20]): 0
- Plant response rating, Oat, Wild (wild oat (Avena fatua); [21]): 0
- Plant response rating, Oat, Wild (wild oat (Avena fatua); [22]): 0
- Oat, Wild plant response rating (wild oat (Avena fatua); [23]): 0
- Plant response rating, Nutsedge, Yellow [12, 16]: 10
- Nutsedge, Yellow plant response rating (0 to 100 scale) [12, 17]: 65
- Plant response rating, Nutsedge, Yellow [12, 18]: 70
- Plant response rating, Nutsedge, Yellow [12, 19]: 75
- Plant response rating, Nutsedge, Yellow [12, 20]: 60
- Plant response rating, Nutsedge, Yellow [12, 21]: 80
- Plant response rating, Nutsedge, Yellow [12, 22]: 90
- Nutsedge, Yellow plant response rating [12, 23]: 90
- Plant response rating, Canarygrass [13, 16]: 0
- Canarygrass plant response rating (0 to 100 scale) [13, 17]: 0
- Plant response rating, Canarygrass [13, 18]: 0
- Plant response rating, Canarygrass [13, 19]: 0
- Plant response rating, Chickweed [14, 16]: 85
- Chickweed plant response rating (0 to 100 scale) [14, 17]: 90
- Plant response rating, Chickweed [14, 18]: 98
- Plant response rating, Chickweed [14, 19]: 100
- Plant response rating, Windgrass [15, 16]: 30
- Windgrass plant response rating (0 to 100 scale) [15, 17]: 50
- Plant response rating, Windgrass [15, 18]: 70
- Plant response rating, Windgrass [15, 19]: 90

— patent publication US8952024B2, “Herbicidal pyrimidone derivatives” (E I du Pont de Nemours and Company, priority 2009, dated 2015)
